Measured values from US20250092111A1, “POTENT AND STABLE POLYPEPTIDE ANALOGUES VIA SERINE/THREONINE LIGATION” (UNIVERSITY OF WASHINGTON, priority 2022, published 2025).

Test system: mouse model of glucose disposal
Experiment: Glucose tolerance test (GTT) in vivo
Conditions: standard glucose tolerance test, data not shown
Protocol: Given the promising activation and stability data, the peptides were tested in vivo using a standard glucose tolerance test (GTT).

## CCCCCCCCCCCCCCCCCCOCCOCCOCCOCCOCCC(=O)N[C@@H](CO)C(=O)NCCCC[C@H](NC(=O)[C@H](CO)NC(=O)[C@@H](NC(=O)[C@H](CC(=O)O)NC(=O)[C@H](CO)NC(=O)[C@@H](NC(=O)[C@H](Cc1ccccc1)NC(=O)[C@@H](NC(=O)CNC(=O)[C@H](CCC(=O)O)NC(=O)[C@H](C)NC(=O)[C@@H](N)Cc1c[nH]cn1)[C@@H](C)O)[C@@H](C)O)C(C)C)C(=O)N[C@@H](Cc1ccc(O)cc1)C(=O)N[C@@H](CC(C)C)C(=O)N[C@@H](CCC(=O)O)C(=O)NCC(=O)N[C@@H](CCC(N)=O)C(=O)N[C@@H](C)C(=O)N[C@@H](C)C(=O)N[C@@H](CCCCN)C(=O)N[C@@H](CCC(=O)O)C(=O)N[C@@H](Cc1ccccc1)C(=O)N[C@H](C(=O)N[C@@H](C)C(=O)N[C@@H](Cc1c[nH]c2ccccc12)C(=O)N[C@@H](CC(C)C)C(=O)N[C@H](C(=O)N[C@@H](CCCCN)C(=O)NCC(=O)N[C@@H](CCCNC(=N)N)C(=O)NCC(=O)O)C(C)C)[C@@H](C)CC [Peptide G2]
  glucose disposal efficiency compared to unmodified GLP-1: improved glucose disposal efficiency
